{
  "source": "patent US11529394B2",
  "about": "“Polypeptide conjugates and methods of uses” (BEIJING QL BIOPHARMACEUTICAL CO., LTD., priority 2020, dated 2022)",
  "key": {"[1]": {"conditions": "endogenous GLP-1; cited from earlier work"}, "[2]": {"test": "Body weight loss in C57 lean mice after single subcutaneous dose", "format": "in vivo, C57BL/6 mice", "method": "Method: 10 week old male C57BL/6 mice were injected subcutaneously with protein once on Day 1. Body weight was measured daily and five animals were used for each treatment group. […] The area under the curve for body weight loss (%) from 0 until 8 days (AUC ΔBW 0-8d) was calculated."}, "db/db mice": {"system": "db/db mice", "test": "Non-fasting glucose in db/db mice after single subcutaneous dose", "format": "in vivo", "conditions": "non-fasting delta blood glucose", "method": "Method: 10 weeks old male db/db mice were injected subcutaneously with protein once. […] Delta blood glucose is glucose subtracted by baseline level. […] The area under the curve for delta blood glucose from 0 until 192 hours (AUCΔBG 0-192 h) was calculated."}, "human serum albumin": {"target": "human serum albumin (Homo sapiens, UniProt P02768)", "sequence (P02768 25-609)": "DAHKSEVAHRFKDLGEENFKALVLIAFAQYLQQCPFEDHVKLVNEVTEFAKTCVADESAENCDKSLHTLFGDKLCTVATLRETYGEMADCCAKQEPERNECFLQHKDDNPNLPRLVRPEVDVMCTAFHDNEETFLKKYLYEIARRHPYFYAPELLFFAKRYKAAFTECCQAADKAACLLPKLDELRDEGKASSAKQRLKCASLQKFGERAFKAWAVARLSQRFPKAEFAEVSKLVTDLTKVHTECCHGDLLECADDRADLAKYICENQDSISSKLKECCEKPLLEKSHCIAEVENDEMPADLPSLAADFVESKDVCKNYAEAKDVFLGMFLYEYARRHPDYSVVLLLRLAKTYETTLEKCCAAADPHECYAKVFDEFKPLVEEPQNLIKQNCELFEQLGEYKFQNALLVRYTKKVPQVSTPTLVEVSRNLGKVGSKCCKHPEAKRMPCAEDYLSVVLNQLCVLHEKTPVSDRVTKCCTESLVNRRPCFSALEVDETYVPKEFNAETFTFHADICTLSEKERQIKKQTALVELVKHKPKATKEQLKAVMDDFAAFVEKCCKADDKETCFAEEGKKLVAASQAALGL", "test": "Human serum albumin binding by surface plasmon resonance (Biacore 8K)", "conditions": "human serum albumin on CM5 chip, SPR", "description": "Method: Binding of molecules to serum albumin was characterized by surface plastron resonance in a Biacore 8K instrument, Serum albumin from different species was covalently bound to CM5 sensor chips surface until 4000 RU was reached. The chip was blocked by 1M ethanolamine with flowrate of 10 μL/min for 420 s, Each molecule sample was diluted and injected at a flow rate of 30 μL/min to allow for binding to chip-bound albumin for 120 s and for dissociation for 300 s. Binding buffer without molecule was sent over the chip at the flow rate of 20 seconds to allow spontaneous dissociation of bound molecule for 30 seconds."}, "GLP-1 receptor": {"target": "GLP-1 receptor (Homo sapiens, UniProt P43220)", "sequence (P43220 24-463, species assumed)": "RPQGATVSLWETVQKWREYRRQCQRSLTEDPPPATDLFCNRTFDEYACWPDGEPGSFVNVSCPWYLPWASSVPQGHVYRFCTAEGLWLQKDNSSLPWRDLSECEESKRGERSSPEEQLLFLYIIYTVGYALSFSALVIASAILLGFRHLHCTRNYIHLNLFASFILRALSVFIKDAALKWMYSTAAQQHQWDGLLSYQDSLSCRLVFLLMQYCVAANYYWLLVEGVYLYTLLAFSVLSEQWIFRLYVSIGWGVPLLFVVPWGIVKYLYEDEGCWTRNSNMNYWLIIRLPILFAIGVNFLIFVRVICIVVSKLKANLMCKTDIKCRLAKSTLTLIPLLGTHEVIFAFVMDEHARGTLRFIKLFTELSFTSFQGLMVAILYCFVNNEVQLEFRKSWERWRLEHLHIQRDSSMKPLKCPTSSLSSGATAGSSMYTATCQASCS", "conditions": "cited from earlier work"}},
  "data": [
    {"substance": "GLP-1: endogenous Glucagon-Like Peptide-1, 30 or 31 amino acid peptide fragment (7-36 or 7-37)", "values": [
      {"measurement": "half-life", "setting": "[1]", "result": "approximately 2 minutes"}
    ]},
    {"substance": "semaglutide [reference compound]", "values": [
      {"measurement": "AUC ΔBW 0-8 d", "setting": "[2]; Study 1 (FIG. 1A and 1B), 3 nmol/kg s.c. once", "result": "−0.6", "unit": "day* %"},
      {"measurement": "AUC ΔBW 0-8 d", "setting": "[2]; Study 1 (FIG. 1A and 1B), 10 nmol/kg s.c. once", "result": "−11.1", "unit": "day* %"},
      {"measurement": "AUC ΔBW 0-8 d", "setting": "[2]; Study 1 (FIG. 1A and 1B), 30 nmol/kg s.c. once", "result": "−12.7", "unit": "day* %"},
      {"measurement": "AUC ΔBW 0-8 d", "setting": "[2]; Study 2 (FIG. 1C), 30 nmol/kg s.c. once", "result": "−9.3", "unit": "day* %"},
      {"measurement": "AUC ΔBW 0-8 d", "setting": "[2]; Study 3 (FIG. 1D), 30 nmol/kg s.c. once", "result": "−13.2", "unit": "day* %"},
      {"measurement": "AUC ΔBG 0-192 h", "setting": "db/db mice; 3 nmol/kg s.c. once", "result": -317.0, "unit": "mmol·h/L"},
      {"measurement": "AUC ΔBG 0-192 h", "setting": "db/db mice; 10 nmol/kg s.c. once", "result": -583.4, "unit": "mmol·h/L"},
      {"measurement": "AUC ΔBG 0-192 h", "setting": "db/db mice; 30 nmol/kg s.c. once", "result": -527.1, "unit": "mmol·h/L"},
      {"measurement": "Rmax", "setting": "human serum albumin", "result": 55.2, "unit": "RU"},
      {"measurement": "loss in GLP-1 receptor binding in presence of human serum albumin (HSA) relative to unconjugated counterpart", "setting": "GLP-1 receptor", "result": 939, "unit": "fold"}
    ]}
  ]
}
